Legend:
RSV A2 VR-1540 = experiment: RSV plaque reduction assay, typical conditions (HEp-2 cells); type: cell-based; conditions: human respiratory syncytial virus; for IC90: typical protocol, read-out: RSV Plaque Reduction Assay Strain A2 IC90; for IC50: †: typical protocol, n = 1, read-out: RSV Plaque Reduction Assay Strain A2 IC50
Description: The plaque reduction assay was typically performed as follows. HEp-2 cells (ATCC, CCL23) were passaged in flasks and seeded in 96-well plates in DMEM containing antibiotics and supplemented with 10% FBS. During inoculation and subsequent incubation, cells were cultured in DMEM containing 3% FBS. 100 plaque forming unit (PFU)/well of RSV (RSV A2 VR-1540) was mixed with ten serial dilutions of compound. Subsequently, 100 μL of the virus/compound mixtures was added to confluent HEp-2 cell monolayers. The cells and virus/compound mixtures were incubated at 35° C. in a humidified 5% CO2 incubator for 1 day.
Cells were washed twice with PBS before adding 50% v % v EtOH/MeOH, and then stored at −20° C. On the day of the staining, fixative was first removed from the plates. Plates were washed 3× with PBS. A pre-titrated amount of the primary antibody was added in 60 μL PBS/2% milk powder, and plates incubated for 1 h at rt. The plates were washed 3× with PBS/0.05% Tween20 before addition of goat anti-mouse horse radish peroxidase in 60 μL PBS/2% milk powder, and incubated for 1 h at rt. Following three wash steps with PBS/0.05% Tween20, 60 μL ready-to-use TrueBlue was added and plates were incubated at it for 10-15 min before adding MilliQ water. Plates were washed once with water, incubated for 30-60 min and after removal of water, air-dried in the dark.
(§1) Plates were scanned and analyzed using the Immunospot S6 UV analyzer, which is equipped with BioSpot analysis software for counting immunostained plaques (virospots). Plaque counts were used to calculate % infection relative to the mean of the spot count (SC) in the virus control wells for RSV. IC50/IC90 values were calculated as 50% or 90% reduction in signal, respectively, by interpolation of inhibition curves fitted with a 4-parameter nonlinear regression with a variable slope in GraphPad 5.0 (Prism). Alternatively, where noted the plaque reduction assay was performed as follows. Hep G2 cells (ECACC, 85011430) were passaged in flasks and seeded in 12-well plates in DMEM containing antibiotics and supplemented with 10% FBS, 24 h prior to inoculation. During inoculation and subsequent incubation, cells were cultured in DMEM containing 2% FBS. 75 plaque forming unit (PFU)/well of RSV (RSV A2, 0709161v) was mixed with 8 serial dilutions of compound. Subsequently, 200 μL of the virus/compound mixtures was added to confluent Hep G2 cell monolayers, for a 2 h infection, with manual shaking every 15 min. Infectious supernatant was then removed and replaced with 2 mL of overlay, comprising 4 parts of DMEM+2% FBS and 1 part 4% CMC, with 0.25% DMSO. The cells were incubated at 37° C. in a humidified 5% CO2 incubator for 5 days.

RSV A2, 0709161v = experiment: RSV plaque reduction assay, alternative conditions (Hep G2 cells); type: cell-based; conditions: human respiratory syncytial virus, HepG2, mean of at least 2 independent experiments, read-out: RSV Plaque Reduction Assay Strain A2 IC50
Description: as §1
Overlay was removed, and cells were washed with PBS before fixing with a mixture of 75% acetone 25% methanol for 3 minutes and replacing with fresh PBS. […] Staining was carried out whilst shaking at 37° C. First the plates were blocked with 500 uL PBS-T/2% milk powder per well, for 1 hr. This was then replaced with 250 uL PBS-T/2% milk powder containing a pre-titrated amount of the primary antibody (ab1128), for 90 min. The plates were washed 3×5 min with PBS-T, before addition of rabbit anti-goat horse radish peroxidase (AP106P) in 250 μL PBS-T/2% milk powder, and incubated for 1 hr. […]
Plates were scanned and analysed using the Immunospot S6 Macro analyzer, which is equipped with BioSpot analysis software for counting immunostained plaques. […]

Row | Compound | IC90 (RSV A2 VR-1540) [nM] | IC50 (RSV A2 VR-1540) [nM] | IC50 (RSV A2, 0709161v) [nM]
1 | CS(=O)(=O)CCCn1c(CN2C(=O)C(F)(F)c3ccccc32)nc2cc(Cl)ccc21 [Compound 5, 1-{[5-Chloro-1-(3-methanesulfonylpropyl)-1H-1,3-benzodiazol-2-yl]methyl}-3,3-difluoro-2,3-dihydro-1H-indol-2-one] | 4.4 | 1.4 | 
2 | CCS(=O)(=O)N1CCC(n2c(CN3C(=O)C(F)(F)c4ccccc43)nc3cc(Cl)ccc32)CC1 [Compound 9, 1-({5-Chloro-1-[1-(ethanesulfonyl)piperidin-4-yl]-1H-1,3-benzodiazol-2-yl}methyl)-3,3-difluoro-2,3-dihydro-1H-indol-2-one] |  |  | 12.6
3 | O=C1N(Cc2nc3cc(Cl)ccc3n2C2CCOCC2)c2ccccc2C1(F)F [Compound 10, 1-{[5-Chloro-1-(oxan-4-yl)-1H-1,3-benzodiazol-2-yl]methyl}-3,3-difluoro-2,3-dihydro-1H-indol-2-one] | 53 | 6.4 | 
4 | CC(C)CCn1c(CN2C(=O)C(F)(F)c3ccccc32)nc2cc(CN)ccc21 [Compound 13, 1-{[5-(Aminomethyl)-1-(3-methylbutyl)-1H-1,3-benzodiazol-2-yl]methyl}-3,3-difluoro-2,3-dihydro-1H-indol-2-one] |  |  | 4.1

Source: patent US11141406B2, “Pharmaceutical compounds” (REVIRAL LIMITED, priority 2017, dated 2021)
